We go through one compound from US20250361217A1, “FATTY ACID COMPOUNDS” (University of Pittsburgh - Of the Commonwealth System of …, priority 2022, published 2025).

Structures are written as SMILES.

On the set-up of the series: species or system mice. The note with it: mouse, in vivo. As to the method: Male C57BL/6J (12 weeks old) mice were used to measure the absorption and metabolism of FuFA. In this procedure, I1D3 (50 mg/kg), I 1U3 (50 mg/kg), I1U3-2M (50 mg/kg) and D31-palmitic acid (10 mg/kg) were administered simultaneously (cassette dosing) to single animal. Consequently, the relative pharmacokinetics of multiple compounds can be assessed rapidly with a small number of experimental animals. The compounds were injected either intraperitoneally (n=5) or by gavage (n=5). At 1, 2 and 4h after injection, a small incision on the tail vein was performed and microhematocrit capillary tubes (FisherBrand, #22-362566) were used to collect serial blood samples ([…] per collection). At 6h, mice were anesthetized, and blood was collected from the vena cava in a terminal blood draw. Blood samples were processed as described above to collect plasma. The pharmacokinetics (PK) of free FuFAs and D31-palmitic acid and their esters found in complex lipids were evaluated using 10 μl of plasma. Briefly, 20 μl of water were added to the […] of plasma and divided into 2 glass tubes. The sample in one tube was measured as is using GC-MS upon derivatization and the other sample was hydrolyzed before derivatization and quantification. […] For the total FA quantification, basic hydrolysis was performed using 500 μl of 1M KOH in MeOH and incubated for 1 h at 60° C. […]

For `CCCc1ccc(CCCCCCCCCC(C)(C)C(=O)O)o1` [11U3-2M, 2,2-Dimethyl-11-(5-propylfuran-2-yl)undecanoic acid], the absorption pathway result is given as “absorbed through the hepatic portal vein”. Moreover, the “oral stability (half-lives) compared with natural FuFAs” value (po, 50 mg/kg) was “longer half-lives”.
